In the oligonucleotide strings, read from the 5' end, every base follows the letter of its sugar. An asterisk marks phosphorothioate; unmarked linkages are phosphodiester. Other units and linkages are bracketed, terminal groups are in braces. A string of capitals states the bases alone. {NAG37} = tridentate N-acetyl-galactosamine targeting ligand, structure (NAG37)s; [invAb] = inverted abasic unit; m = 2'-O-methyl; f = 2'-fluoro
System: ANGPTL3 gene
Test: Example 14: RNAi agent and statin, serum triglycerides in LDLR knockout mice
Assay type: in vivo, LDLR KO mice
Text: To evaluate the effect of co-administration of RNAi agents and statins in a disease model, LDLR KO mice were commercially obtained (The Jackson Laboratory). For three weeks prior to the onset of the study, forty-one (41) male 7 to 8 week old LDLR KO mice were placed on a high fat (“western”) diet (Teklad Custom Diets TD.88137), and remained on that diet throughout the duration of the study. Pre-dose serum samples were taken on study Day 1 after a four hour fast. The dosing regimen for the study is recited in the following Table 72:
• Mice were treated at 40 mg/kg for the first 11 days, then switched to 20 mg/kg thereafter.
The vehicle used for the oral gavage in the study was a 1:1 mixture of Ora-Plus®: Ora-Sweet® solution, which were acquired commercially. For the preparation of the atorvastatin oral gavage administrations, the respective desired dose of atorvastatin was first dissolved in sterile water (0.3 mL water per 1 mL of desired formulation) and vortexed until smooth, followed by the addition of a mixture of 1:1 Ora-Plus®: Ora-Sweet® solution (0.7 mL vehicle per 1 mL of desired formulation) and vortexed. On day 1 and for each day thereafter an oral gavage dose was administered for each of the Groups except for Group 2. On Day 23, Groups 1, 2, 3, and 4 received a single subcutaneous administration of 2.5 mg/kg dose ([…] solution) of an ANGPTL3 RNAi agent in D5W (dextrose in 5% water), or vehicle control (D5W) with no RNAi agent.
The RNAi agent tested (AD05488) included a modified sequence and an N-acetyl-galactosamine-containing targeting ligand conjugated to the 5′ terminal end of the sense strand. (See Tables 3, 4, and 5 for modified sequences and targeting ligand structures). The injections were performed between the skin and muscle (i.e. subcutaneous injections) into the loose skin over the neck and shoulder area. Serum was collected on days 8, 15, 22 (pre-RNAi agent injection), 29, 36, 43, and 50. LDLR KO mice were fasted for four hours prior to each collection.
ANGPTL3 protein levels in serum were measured by ELISA assay (R&D Systems), according to the manufacturer's recommendations. Among other biomarkers, triglycerides, total cholesterol, and low-density lipoprotein (LDL) in serum were measured on a Cobas® Integra 400 (Roche Diagnostics), according to the manufacturer's recommendations.
The ANGPTL3 protein levels, triglyceride levels, total cholesterol levels, HDL levels, and LDL levels for each animal were normalized. For normalization, respective levels of ANGPTL3 protein, TG, total cholesterol, or LDL for each animal at a time point was divided by the pre-treatment level of expression in that animal (in this case pre-dose levels on Day 1) to determine the ratio of expression “normalized to pre-treatment.” Data from the study set forth in this Example are shown in the following Tables 73-76: […]

With “AD05488: RNAi agent duplex: antisense AM07235-AS, sense AM07234-SS (antisense mU*fA*mC*fUmGfAmUfCmAfAmAfUmAfUmGfUmUfGmAfG*mC; sense {NAG37}*[invAb]*mGmCmUmCmAmAmCmAfUfAfUmUmUmGmAmUmCmAmGmUmA*[invAb])” the “Avg TG normalized to pre-treatment” value (Group 2: no gavage, 2.5 mg/kg AD05488 SC on day 23, Day 8 (pre-RNAi agent injection)) was 0.988, the “Avg TG normalized to pre-treatment” value (Group 2: no gavage, 2.5 mg/kg AD05488 SC on day 23, Day 15 (pre-RNAi agent injection)) was 1.247 and the “Avg TG normalized to pre-treatment” value (Group 2: no gavage, 2.5 mg/kg AD05488 SC on day 23, Day 22 (pre-RNAi agent injection)) was 1.524. For the same substance, the “Avg TG normalized to pre-treatment” value (Group 2: no gavage, 2.5 mg/kg AD05488 SC on day 23, Day 29) was 0.166, the “Avg TG normalized to pre-treatment” value (Group 2: no gavage, 2.5 mg/kg AD05488 SC on day 23, Day 36) was 0.125 and the “Avg TG normalized to pre-treatment” value (Group 2: no gavage, 2.5 mg/kg AD05488 SC on day 23, Day 43) was 0.139. The “Avg TG normalized to pre-treatment” value (Group 2: no gavage, 2.5 mg/kg AD05488 SC on day 23, Day 50) was 0.153, the “Avg TG normalized to pre-treatment” value (Group 3: 10 mg/kg daily oral gavage atorvastatin, 2.5 mg/kg AD05488 on day 23, Day 8 (pre-RNAi agent injection)) was 0.613 and the “Avg TG normalized to pre-treatment” value (Group 3: 10 mg/kg daily oral gavage atorvastatin, 2.5 mg/kg AD05488 on day 23, Day 15 (pre-RNAi agent injection)) was 0.436. For the same substance, the “Avg TG normalized to pre-treatment” value (Group 3: 10 mg/kg daily oral gavage atorvastatin, 2.5 mg/kg AD05488 on day 23, Day 22 (pre-RNAi agent injection)) was 0.614, the “Avg TG normalized to pre-treatment” value (Group 3: 10 mg/kg daily oral gavage atorvastatin, 2.5 mg/kg AD05488 on day 23, Day 29) was 0.072 and the “Avg TG normalized to pre-treatment” value (Group 3: 10 mg/kg daily oral gavage atorvastatin, 2.5 mg/kg AD05488 on day 23, Day 36) was 0.058. For the same substance, the “Avg TG normalized to pre-treatment” value (Group 3: 10 mg/kg daily oral gavage atorvastatin, 2.5 mg/kg AD05488 on day 23, Day 43) was 0.076, the “Avg TG normalized to pre-treatment” value (Group 3: 10 mg/kg daily oral gavage atorvastatin, 2.5 mg/kg AD05488 on day 23, Day 50) was 0.065 and the “Avg TG normalized to pre-treatment” value (Group 4: 20 mg/kg* daily oral gavage atorvastatin (40 mg/kg first 11 days), 2.5 mg/kg AD05488 on day 23, Day 8 (pre-RNAi agent injection)) was 0.567. For the same substance, the “Avg TG normalized to pre-treatment” value (Group 4: 20 mg/kg* daily oral gavage atorvastatin (40 mg/kg first 11 days), 2.5 mg/kg AD05488 on day 23, Day 15 (pre-RNAi agent injection)) was 0.526, the “Avg TG normalized to pre-treatment” value (Group 4: 20 mg/kg* daily oral gavage atorvastatin (40 mg/kg first 11 days), 2.5 mg/kg AD05488 on day 23, Day 22 (pre-RNAi agent injection)) was 0.748 and the “Avg TG normalized to pre-treatment” value (Group 4: 20 mg/kg* daily oral gavage atorvastatin (40 mg/kg first 11 days), 2.5 mg/kg AD05488 on day 23, Day 29) was 0.071. For the same substance, the “Avg TG normalized to pre-treatment” value (Group 4: 20 mg/kg* daily oral gavage atorvastatin (40 mg/kg first 11 days), 2.5 mg/kg AD05488 on day 23, Day 36) was 0.058, the “Avg TG normalized to pre-treatment” value (Group 4: 20 mg/kg* daily oral gavage atorvastatin (40 mg/kg first 11 days), 2.5 mg/kg AD05488 on day 23, Day 43) was 0.089 and the “Avg TG normalized to pre-treatment” value (Group 4: 20 mg/kg* daily oral gavage atorvastatin (40 mg/kg first 11 days), 2.5 mg/kg AD05488 on day 23, Day 50) was 0.082. For the same substance, the “effects on lipid parameters” value (co-administration of atorvastatin (Groups 3 and 4), LDLR KO mice on high fat diet) was “additive effects” and the “total reductions in triglycerides” value (co-administration of atorvastatin and RNAi agent (Groups 3 and 4), LDLR KO mice on high fat diet) was ~ 95%.

From US12729377B2, “RNAi agents and compositions for inhibiting expression of angiopoietin-like 3 (ANGPTL3), and methods of use” (Arrowhead Pharmaceuticals, Inc., priority 2017, dated 2026)
